{
  "source": "patent US20120142623A1",
  "about": "“Compositions And Methods For Predicting Inhibitors Of Protein Targets” (priority 2006, published 2012)",
  "key": {"[1]": {"biological_target": "Integrase (Human immunodeficiency virus type 1 group M subtype B, UniProt P04585)"}, "[2]": {"biological_target": "Reverse transcriptase (Human immunodeficiency virus type 1 group M subtype B, UniProt P04585)"}, "[3]": {"biological_target": "Tat (Human immunodeficiency virus type 1 group M subtype B, UniProt P04608)", "sequence (P04608 whole entry)": "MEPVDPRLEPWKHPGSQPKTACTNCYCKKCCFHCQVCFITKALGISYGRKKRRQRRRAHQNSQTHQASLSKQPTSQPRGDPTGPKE"}, "[4]": {"system": "HIV-1", "details": "HIV-1, target Unknown, cited from earlier work"}, "[5]": {"biological_target": "Vpr (Human immunodeficiency virus type 1 group M subtype B, UniProt P12520)", "sequence (P12520 whole entry)": "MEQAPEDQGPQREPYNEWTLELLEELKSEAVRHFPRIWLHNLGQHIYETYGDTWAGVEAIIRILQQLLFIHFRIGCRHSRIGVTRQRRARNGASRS", "details": "read-out: Inhibitory effect (uM), EC50, Vpr; HIV-1 target Vpr; cited from earlier work"}, "[6]": {"biological_target": "Protease (Human immunodeficiency virus type 1 group M subtype B, UniProt P04585)", "details": "HIV-1 target Protease; read-out: Inhibitory effect (uM), IC50, Protease; cited from earlier work"}, "[7]": {"system": "plasmepsin enzyme target from the malarial parasite Plasmodium malariae", "details": "complexes solved by x-ray diffraction (1msm, 2anl); cited from earlier work"}, "[8]": {"biological_target": "T1, gp120 (Human immunodeficiency virus type 1 group M subtype B, UniProt P03375)", "T1 construct": "V3 region of HIV-1 envelope glycoprotein gp120 to galactosylceramide", "details": "read-out: Inhibitory effect (uM), ED50, gp120; HIV-1 target gp120; cited from earlier work"}, "[9]": {"biological_target": "T2, HSV2 protease (Human herpesvirus 2, UniProt P89449)", "T2 construct": "HSV2 protease Kd (uM)", "T2 sequence (P89449 1-247)": "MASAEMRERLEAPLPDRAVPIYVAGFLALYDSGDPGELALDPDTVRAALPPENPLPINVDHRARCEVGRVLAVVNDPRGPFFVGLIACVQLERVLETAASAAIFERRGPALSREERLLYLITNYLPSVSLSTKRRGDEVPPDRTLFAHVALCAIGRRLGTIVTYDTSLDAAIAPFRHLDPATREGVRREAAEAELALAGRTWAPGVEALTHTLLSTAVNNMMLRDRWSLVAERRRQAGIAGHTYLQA", "assay": "Surface Plasmon Resonance (SPR), dissociation constant for HSV protease", "type": "binding, herpes simplex virus (HSV2)", "from_the_text": "(§1) The first experimental verification of our computational predictions were with TMPyP4, the top ranking inhibitor predicted to bind to all known herpesvirus proteases (see FIG. 3). This is also the inhibitor that we have characterized most computationally and experimentally, so we focus primarily on this inhibitor. […] Traditional approaches to design an inhibitor against this molecule is likely to fail since it has an extremely shallow active site pocket. However, protease dimerisation is essential for protein function and our top ranking inhibitor not only fit around the active site (covering it) but also intercolated itself in the dimer interface. Our predicted mode of action was therefore two fold: covering the surface of the active site, and inhibition of dimerisation in a reversible manner (i.e., as dimers formed, our inhibitor would bind which would disrupt the dimer, resulting in the inhibitor binding weakly and likely released, which would lead to reformation of the dimer, and so on). FIG. 3 illustrates this mode of action. […] TMPyP4 is the only known compound that is capable of inhibiting all three classes of herpesviruses.\n(§2) Four inhibitors were evaluated; our top ranking one (TMPyP4) clearly binds to all three proteases as predicted. […] A third inhibitor, GW8510, predicted to bind fails (i.e., a misprediction). […]"}, "[10]": {"system": "chloroquine-sensitive strain 3D7 of P. falciparum", "assay": "P. falciparum growth inhibition in culture, strain 3D7", "type": "cell-based, Plasmodium falciparum", "details": "for EC50: Plasmodium falciparum, 3D7"}, "[11]": {"system": "chloroquine-resistant strain K1 of P. falciparum", "assay": "P. falciparum growth inhibition in culture, strain K1", "type": "cell-based, Plasmodium falciparum", "details": "Plasmodium falciparum, K1"}, "[12]": {"biological_target": "HSV protease", "assay": "Surface Plasmon Resonance, HSV protease", "type": "binding", "details": "SPR, FIG. 4", "description": "(§3) Four inhibitors were evaluated; our top ranking one (TMPyP4) clearly binds to all three proteases as predicted. […] A third inhibitor, GW8510, predicted to bind fails (i.e., a misprediction). […] Our inhibitor prediction is completely consistent with the observed experimental data which is verified further by cell culture studies in FIG. 4 and compared to existing antiherpes drugs."}, "[13]": {"system": "HSV-1 strain F", "assay": "HSV-1 infection of Vero cells, virus titer", "type": "cell-based"}, "[14]": {"system": "CMV", "assay": "CMV infection of HFF cells, virus titer", "type": "cell-based", "details": "FIG. 5"}, "[15]": {"system": "KSHV", "assay": "KSHV inhibition, different assay, fold reduction", "type": "cell-based", "details": "FIG. 5"}, "[16]": {"system": "herpesvirus lytic phase viral growth", "assay": "Herpesvirus lytic phase viral growth in vitro", "type": "cell-based", "details": "dose-dependent, starting at micromolar concentrations"}, "[17]": {"biological_target": "T3, CMV protease (Human cytomegalovirus, UniProt P16753)", "T3 sequence (P16753 1-256)": "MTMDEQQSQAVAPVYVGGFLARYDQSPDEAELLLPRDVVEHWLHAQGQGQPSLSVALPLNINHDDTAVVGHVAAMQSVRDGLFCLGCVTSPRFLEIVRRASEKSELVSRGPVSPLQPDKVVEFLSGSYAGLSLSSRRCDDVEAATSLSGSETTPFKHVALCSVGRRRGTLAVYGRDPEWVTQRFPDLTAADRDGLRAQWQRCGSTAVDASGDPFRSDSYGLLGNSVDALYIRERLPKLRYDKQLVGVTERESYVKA", "assay": "Surface Plasmon Resonance (SPR), dissociation constant for CMV protease", "type": "binding", "parameters": "CMV protease Kd (uM)", "from_the_text": "as §1, §2"}, "[18]": {"biological_target": "T4, KSHV protease (Human herpesvirus 8 type P, UniProt Q2HRB6)", "T4 sequence (Q2HRB6 1-230)": "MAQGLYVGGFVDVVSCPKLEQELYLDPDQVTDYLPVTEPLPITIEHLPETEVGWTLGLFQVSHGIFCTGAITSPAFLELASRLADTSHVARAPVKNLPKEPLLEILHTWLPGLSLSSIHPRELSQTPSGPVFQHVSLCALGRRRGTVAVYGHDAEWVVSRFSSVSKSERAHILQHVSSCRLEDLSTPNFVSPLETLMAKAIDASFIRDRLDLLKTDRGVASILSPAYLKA", "assay": "Surface Plasmon Resonance (SPR), dissociation constant for KSHV protease", "type": "binding, Kaposi's sarcoma virus (KSHV)", "parameters": "KSHV protease Kd (uM)", "from_the_text": "as §1, §2"}, "[19]": {"biological_target": "T3, CMV protease", "assay": "Surface Plasmon Resonance, CMV protease", "type": "binding", "parameters": "herpes simplex virus (HSV) proteases (including HSV2, VZV, EBV, CMV, and KSHV)", "details": "SPR, FIG. 4", "description": "as §3"}, "[20]": {"biological_target": "T4, KSHV protease", "assay": "Surface Plasmon Resonance, KSHV protease", "type": "binding", "parameters": "herpes simplex virus (HSV) proteases (including HSV2, VZV, EBV, CMV, and KSHV)", "details": "SPR, FIG. 4", "description": "as §3"}, "[21]": {"system": "gp41", "details": "HIV-1 target gp41; read-out: Inhibitory effect (uM), IC50, gp41; cited from earlier work"}},
  "note": "Like-named read-outs stand apart in the source and are kept apart here.",
  "data": [
    {"molecule": "CCN(CC)CCCC(C)Nc1ccnc2cc(Cl)ccc12", "note": "(stereo not drawn) [Chloroquine]", "values": [
      {"measurement": "IC50", "setting": "[1]; read-out: Inhibitory effect (uM), IC50, Integrase; HIV-1 target Integrase; cited from earlier work", "result": 5.14, "unit": "µM"},
      {"measurement": "IC50", "setting": "[2]; read-out: Inhibitory effect (uM), IC50, Reverse transcriptase; HIV-1 target Reverse transcriptase; cited from earlier work", "result": "> 300", "unit": "µM"},
      {"measurement": "IC50", "setting": "[3]; read-out: Inhibitory effect (uM), IC50, Tat; HIV-1 target Tat; cited from earlier work", "result": "< 50", "unit": "µM"}
    ]},
    {"molecule": "CCC(C)c1c(O[C@H]2C[C@@H](O[C@H]3C[C@@H](O)[C@H](O)[C@@H](C)O3)[C@H](O)[C@@H](C)O2)cc2cc3c(c(O)c2c1O)C(=O)C(O[C@H]1C[C@@H](O[C@H]2C[C@@H](O[C@H]4C[C@@H](O[C@H]5C[C@@H](O)[C@H](O)[C@@H](C)O5)[C@H](O)[C@@H](C)O4)[C@@H](OC(C)=O)[C@@H](C)O2)[C@H](O)[C@@H](C)O1)C(C(OC)C(=O)C(O)C(C)O)C3", "note": "(stereo partly drawn) [Durhamycin A]", "values": [
      {"measurement": "IC50", "setting": "[3]; HIV-1 target Tat; read-out: Inhibitory effect (uM), IC50, Tat; cited from earlier work", "result": 0.0048, "unit": "µM"}
    ]},
    {"molecule": "CC(C)S(=O)(=O)n1c(N)nc2ccc(/C(=N/O)c3ccccc3)cc21", "note": "[Enviroxime]", "values": [
      {"measurement": "EC50", "setting": "[4]; read-out: Inhibitory effect (uM), EC50, target Unknown", "result": "> 36.5", "unit": "µM"}
    ]},
    {"molecule": "CO[C@@H]1[C@H](OC(=O)/C=C/C=C/C=C/C=C/C(=O)O)CC[C@]2(CO2)[C@H]1[C@@]1(C)O[C@@H]1CC=C(C)C", "note": "[Fumagillin]", "values": [
      {"measurement": "EC50", "setting": "[5]", "result": 0.015, "unit": "µM"},
      {"measurement": "EC50", "setting": "[4]; printed EC, read-out: Inhibitory effect (uM), EC, target Unknown", "result": "> 0.2", "unit": "µM"}
    ]},
    {"molecule": "Cc1ccccc1CNC(=O)[C@H]1N(C(=O)[C@@H](O)[C@H](Cc2ccccc2)NC(=O)c2cccc(O)c2C)CSC1(C)C", "note": "[KNI-764]", "values": [
      {"measurement": "IC50", "setting": "[6]", "result": "> 0.05", "unit": "µM"},
      {"measurement": "inhibition of HIV-1 protease and plasmepsin", "setting": "[7]", "result": "inhibits both HIV-1 protease and the plasmepsin enzyme target"}
    ]},
    {"molecule": "CN(C)c1ccc(O)c2c1C[C@H]1C[C@H]3[C@H](N(C)C)C(O)=C(C(N)=O)C(=O)[C@@]3(O)C(O)=C1C2=O", "note": "[Minocycline]", "values": [
      {"measurement": "IC50", "setting": "[2]; HIV-1 target Reverse transcriptase; read-out: Inhibitory effect (uM), IC50, Reverse transcriptase; cited from earlier work", "result": 1200, "unit": "µM"}
    ]},
    {"molecule": "Cc1ccc(C(=O)Nc2ccc(S(=O)(=O)O)c3cc(S(=O)(=O)O)cc(S(=O)(=O)O)c23)cc1NC(=O)c1cccc(NC(=O)Nc2cccc(C(=O)Nc3cc(C(=O)Nc4ccc(S(=O)(=O)O)c5cc(S(=O)(=O)O)cc(S(=O)(=O)O)c45)ccc3C)c2)c1", "note": "[Suramin]", "values": [
      {"measurement": "IC50", "setting": "[1]; HIV-1 target Integrase; read-out: Inhibitory effect (uM), IC50, Integrase; cited from earlier work", "result": 2.4, "unit": "µM"},
      {"measurement": "EC50", "setting": "[8]", "result": 7.7, "unit": "µM"}
    ]},
    {"molecule": "C[n+]1ccc(-c2c3nc(c(-c4cc[n+](C)cc4)c4ccc([nH]4)c(-c4cc[n+](C)cc4)c4nc(c(-c5cc[n+](C)cc5)c5ccc2[nH]5)C=C4)C=C3)cc1", "note": "[TMPyP4, meso-5,10,15,20-Tetrakis-(N-methyl-4-pyridyl)porphine tetratosylate]", "values": [
      {"measurement": "Kd", "setting": "[9]", "result": 40, "unit": "µM"},
      {"measurement": "EC50", "setting": "[10]; Table 3 section A, mean of at least two measurements, read-out: ED50 in 3D7", "result": 1, "unit": "µM"},
      {"measurement": "EC50", "setting": "[10]; Table 5, read-out: ED50 (μM) in 3D7", "result": 1, "unit": "µM"},
      {"measurement": "result of the 16 tested inhibitors in words (binding)", "setting": "[10]; summary of Table 5", "result": "moderate binding"},
      {"measurement": "EC50", "setting": "[11]; Table 3 section A, mean of at least two measurements, read-out: ED50 in K1", "result": 1, "unit": "µM"},
      {"measurement": "EC50", "setting": "[11]; Table 5, read-out: ED50 (μM) in K1", "result": 1, "unit": "µM"},
      {"measurement": "disassociation constant (Kd), HSV protease", "setting": "[12]", "result": "micromolar range"},
      {"measurement": "effect used together with acylovir", "setting": "[13]; FIG. 5 bottom left panel, virus not named", "result": "almost completely eliminates all virus when used together"},
      {"measurement": "effectiveness after passage for several cycles with both acylovir and TMPyP4", "setting": "[13]; FIG. 5 bottom right panel, virus not named", "result": "still continues to be effective"},
      {"measurement": "inhibition of HSV, virus titer", "setting": "[13]; Vero cells, HSV-1 strain F, FIG. 5", "result": "comparably or better than existing antiherpes drugs"},
      {"measurement": "inhibition of CMV, virus titer", "setting": "[14]", "result": "comparably or better than existing antiherpes drugs"},
      {"measurement": "inhibition of KSHV", "setting": "[15]", "result": "inhibited KSHV"},
      {"measurement": "inhibition of lytic phase viral growth", "setting": "[16]", "result": 90, "unit": "%"},
      {"measurement": "Kd", "setting": "[17]", "result": 36, "unit": "µM"},
      {"measurement": "Kd", "setting": "[18]", "result": 32.8, "unit": "µM"},
      {"measurement": "disassociation constant (Kd), CMV protease", "setting": "[19]", "result": "micromolar range"},
      {"measurement": "disassociation constant (Kd), KSHV protease", "setting": "[20]", "result": "micromolar range"}
    ]},
    {"molecule": "Amphotericin B", "values": [
      {"measurement": "IC50", "setting": "[21]", "result": "> 10", "unit": "µM"}
    ]}
  ]
}
